Measurements as given in US10548317B2, “Pesticidally active pyrazole derivatives” (SYNGENTA PARTICIPATIONS AG, priority 2015, dated 2020).

What was measured:
Euschistus heros = Euschistus heros (neotropical brown stink bug) soybean leaf test; type: in vivo; settings: 120 h, application rate of 200 ppm, soybean leaves, N2 nymphs, 5 days after infestation, read-out: effect in at least one of the two categories (mortality or growth inhibition)
Plutella xylostella = Plutella xylostella (diamond back moth) artificial diet test; type: in vivo; settings: 120 h, application rate of 200 ppm, L2 larvae, 5 days after infestation, read-out: effect in at least one of the two categories (mortality or growth inhibition)
Thrips tabaci = Thrips tabaci (onion thrips) sunflower leaf disc test; type: in vivo; settings: foliar, 144 h, application rate of 200 ppm, sunflower leaf discs, mixed ages, 6 days after infestation
Experimental: Thrips tabaci (Onion thrips):
(§1) Sunflower leaf discs were placed on agar in 24-well microtiter plates and sprayed with aqueous test solutions prepared from 10'000 ppm DMSO stock solutions. After drying the leaf discs were infested with a thrips population of mixed ages. The samples were assessed for mortality 6 days after infestation.

Spodoptera littoralis = Spodoptera littoralis (Egyptian cotton leaf worm) leaf disc spray test; type: in vivo; settings: foliar, 72 h, application rate of 200 ppm, cotton leaf discs, L1 larvae, 3 days after infestation, read-out: control (at least one of mortality, anti-feedant effect, growth inhibition)
Diabrotica balteata = Diabrotica balteata (corn root worm) maize sprout test; type: in vivo; settings: 96 h, application rate of 200 ppm, maize sprouts, L2 larvae, 4 days after infestation, read-out: effect in at least one of the two categories (mortality or growth inhibition)
Tetranychus urticae = Tetranychus urticae (two-spotted spider mite) bean leaf disc test; type: in vivo; settings: foliar, 192 h, application rate of 200 ppm, bean leaf discs, mixed population (mobile stages), 8 days after infestation
Experimental: Tetranychus urticae (Two-Spotted Spider Mite):
as §1, with “Bean” for “Sunflower”, “discs” for “discs were placed”, “were” for “and”, “mite” for “thrips”, “on mixed population (mobile stages) 8” for “6”

Structure (SMILES) | melting point [°C] | also measured
Cn1nc(C(F)(F)C(F)(F)F)c(C(F)(F)F)c1-n1cc(-n2cc(C(=O)NC3(C#N)CC3)nn2)cn1 [Compound 67] | > 250 | –
Cn1nc(C(F)(F)C(F)(F)F)c(C(F)(F)F)c1-n1cc(-c2cnc(C(=O)NC3(C#N)CC3)s2)cn1 [Compound 64] | 158 to 159 | –
Cn1nc(C(F)(F)C(F)(F)F)c(C(F)(F)F)c1-n1cc(-n2cnc(C(=O)NC3(C#N)CC3)c2)cn1 [Compound 62] | 195 to 197 | –
Cn1nc(C(F)(F)C(F)(F)F)c(C(F)(F)F)c1-n1cc(-c2cc(C(=O)NC3CC3)no2)cn1 [Compound 66] | 181 to 183 | –
Cn1nc(C(F)(F)C(F)(F)F)c(C(F)(F)F)c1-n1cc(-c2cc(C(=O)NC3CC3)sn2)cn1 [Compound 63] | 146 to 148 | –
Cn1nc(C(F)(F)C(F)(F)F)c(C(F)(F)F)c1-n1cc(-n2cnc(C(=O)NC3CC3)c2)cn1 [Compound 49] | 190 to 191 | –
Cn1nc(C(F)(F)C(F)(F)F)c(C(F)(F)F)c1-n1cc(-n2cc(C(=O)NC3CC3)nn2)cn1 [Compound 68] | 242 to 244 | –
Cn1nc(C(F)(F)C(F)(F)F)c(C(F)(F)F)c1-n1cc(-c2cnc(C(=O)NC3CC3)s2)cn1 [Compound 65] | 132 to 133 | –
Cn1nc(C(F)(F)C(F)(F)F)c(C(F)(F)F)c1-n1cc(-c2cc(C(=O)NC3CC3)c(Br)s2)cn1 [Compound 57] | 192 to 193 | –
Cn1nc(C(F)(F)C(F)(F)F)c(C(F)(F)F)c1-n1cc(-c2cc(C(=O)NC3(C#N)CC3)c(Br)s2)cn1 [Compound 61] | 184 to 185 | –
Cn1nc(C(F)(F)C(F)(F)F)c(C(F)(F)F)c1-n1cc(-c2cc(C(=O)NC3CC3)c(C#N)s2)cn1 [Compound 59] | 171 to 172 | –
Cn1nc(C(F)(F)C(F)(F)F)c(C(F)(F)F)c1-n1cc(-c2cc(C(=O)NC3(C(N)=O)CC3)c(Cl)s2)cn1 [Compound 5, N-(1-carbamoylcyclopropyl)-2-chloro-5-[1-[2-methyl-5-(1,1,2,2,2-pentafluoroethyl)-4-(trifluoromethyl)pyrazol-3-yl]pyrazol-4-yl]thiophene-3-carboxamide] | – | percent effect (mortality or growth inhibition) at 200 ppm (Euschistus heros): ≥ 80%; percent effect (mortality or growth inhibition) at 200 ppm (Plutella xylostella): ≥ 80%; mortality at 200 ppm (Thrips tabaci): ≥ 80%; control (mortality, anti-feedant effect or growth inhibition) at 200 ppm (Spodoptera littoralis): ≥ 80%; percent effect (mortality or growth inhibition) at 200 ppm (Diabrotica balteata): ≥ 80%; mortality at 200 ppm (Tetranychus urticae): ≥ 80%
COc1sc(-c2cnn(-c3c(C(F)(F)F)c(C(F)(F)C(F)(F)F)nn3C)c2)cc1C(=O)NC1CC1 [Compound 56] | 152 to 153 | –
